Our source for the IC50 values is ChEMBL document CHEMBL5036330, “Discovery of 8,9-seco-ent-Kaurane Diterpenoids as Potential Leads for the Treatment of Triple-Negative Breast Cancer” (J Med Chem, 2021).

Test [1] deals with MDA-MB-231. The test can be described thus: Cytotoxicity against human MDA-MB-231 cells assessed as reduction in cell viability incubated for 96 hrs by MTT method. The format is functional, cell-based. The settings on record: MDA-MB-231, 96 h. (In general: Formazan colour is commonly taken as a measure of viable cells.)
Test [2] has as its system MDA-MB-468. Kind of test: Cytotoxicity against human MDA-MB-468 cells assessed as reduction in cell viability incubated for 96 hrs by MTT method. In kind it is functional, cell-based. Particulars: MDA-MB-468, 96 h.
The subject of test [3] is MCF7. The test can be described thus: Cytotoxicity against human MCF7 cells assessed as reduction in cell viability incubated for 96 hrs by MTT method. Particulars: MCF7, 96 h. The format is functional, cell-based.
Test [4] relates to L02. The test can be described thus: Cytotoxicity against human L02 cells assessed as reduction in cell viability incubated for 96 hrs by MTT method. In kind it is cell-based. Particulars: L02, 96 h.
For test [5], the system named is MCF-10A. The test can be described thus: Cytotoxicity against human MCF-10A cells assessed as reduction in cell viability incubated for 96 hrs by MTT method. In kind it is cell-based.
Test [6] relates to HEK293. Kind of test: Cytotoxicity against HEK-293 cells assessed as reduction in cell viability incubated for 96 hrs by MTT method. In kind it is cell-based. The settings on record: Homo sapiens, HEK293, 96 h.

As to `CC1(C)C(=O)CC[C@]2(C)[C@@H]1CC[C@@]13C[C@@H](CC[C@H]12)[C@@H](CO)C3`, the IC50 in test [1], in test [2] and in test [3] was greater than 5000 nM each time.

Consider `C=C1C(=O)C2=C[C@H]1CCC(=O)[C@]1(C)C(=O)CCC(C)(C)[C@H]1C[C@H]2OC(=O)CCl`, for which the IC50 (commonly the point on the concentration scale where inhibition reaches its midpoint) is 1610 nM in test [1], 345 nM in test [2] and 505 nM in test [3].

As for `COc1cccc2c1C(=O)c1c(O)c3c(c(O)c1C2=O)C[C@@](O)(C(=O)CO)C[C@@H]3O[C@H]1C[C@H](N)[C@H](O)[C@H](C)O1` [DOXORUBICIN], the IC50 stood at 80.5 nM in test [1]; 256 nM in test [4]; 52.1 nM in test [2]; 33 nM in test [5]; 106 nM in test [6].

As to `C=C(C)CC(=O)O[C@@H]1C[C@@H]2C(C)(C)CC[C@@H](O)[C@@]2(C)C(=O)CC[C@@H]2C=C1C(=O)C2=C`, the IC50 was determined as 564 nM in test [1], 890 nM in test [2] and 1190 nM in test [3].

On to `C=C1C(=O)C2=C[C@H]1CCC(=O)[C@]1(C)[C@H](O)CCC(C)(C)[C@H]1C[C@H]2OC`, for which the half-inhibitory concentration (IC50) came to 185 nM in test [1], 121 nM in test [2] and 215 nM in test [3].

Take `C[C@H]1C(=O)[C@]23C[C@H]1CC[C@@]2(O)[C@]1(C)[C@H](O)CCC(C)(C)[C@H]1C[C@H]3O`: the 50% inhibitory concentration (IC50) in test [1], in test [2] and in test [3] was greater than 5000 nM each time.

As for `C=C1C(=O)C2=C[C@H]1CCC(=O)[C@]1(C)C(=O)CCC(C)(C)[C@H]1C[C@H]2OC(C)=O`, the values for the IC50 in test [1], in test [2] and in test [3] were 28.7 nM, 215 nM and 538 nM, respectively.

As for `C[C@H]1C(=O)C2=C[C@H]1CCC(=O)[C@]1(C)[C@H](O)CCC(C)(C)[C@H]1C[C@H]2O`, the half-inhibitory concentration (IC50) in test [1], in test [2] and in test [3] was greater than 5000 nM in each case.

With `C=C1C(=O)C2=C[C@H]1CCC(=O)[C@]1(C)[C@H](O)CCC(C)(C)[C@H]1C[C@H]2OC(=O)c1ccccc1`, the results for the 50% inhibitory concentration (IC50) in test [1], in test [2] and in test [3] were 466 nM, 301 nM and 999 nM, respectively.

Take `C=C1C(=O)[C@@]23[C@H](O)C[C@@H]4C(C)(C)CC[C@@H](O)[C@@]4(C)[C@]2(O)CC[C@@H]1[C@H]3O`: the values for the IC50 in test [1], in test [2] and in test [3] were 153 nM, 116 nM and 248 nM, respectively.

In the case of `C=CC(=O)O[C@@H]1C[C@@H]2C(C)(C)CC[C@@H](OC(=O)C=C)[C@@]2(C)C(=O)CC[C@@H]2C=C1C(=O)C2=C`, the 50% inhibitory concentration (IC50) in test [1] worked out at 237 nM; in test [2], 395 nM; in test [3], 1120 nM.

With `CC1(C)C(=O)CC[C@]2(C)[C@@H]1CC[C@]13C[C@H]4C[C@H](O[C@@]4(C)C1)[C@H]32`, the IC50 in test [1], in test [2] and in test [3] was greater than 5000 nM in each case.

Turning to `C=C1C(=O)C2=C[C@H]1CCC(=O)[C@@]1(C)[C@H](C[C@H]2OC(C)=O)C(C)(C)CC[C@H]1OC(C)=O`, the IC50 in test [1] stood at 978 nM; in test [2] it was 762 nM; in test [3], 226 nM.

As for `C=C1C(=O)C2=C[C@H]1CCC(=O)[C@]1(C)C(=O)CCC(C)(C)[C@H]1C[C@H]2OC(=O)c1ccccc1`, the results for the IC50 in test [1], in test [2] and in test [3] were 2000 nM, 2070 nM and 882 nM, respectively.

On to `CC1(C)C(=O)CC[C@]2(C)[C@@H]1CC[C@@]13C[C@@H](CC[C@H]12)[C@@](O)(CO)C3`, for which the IC50 in test [1], in test [2] and in test [3] was greater than 5000 nM each time.

Turning to `C=C1C(=O)C2=C[C@H]1CCC(=O)[C@]1(C)C(=O)CCC(C)(C)[C@H]1C[C@H]2O`, the IC50 was 124 nM in test [1], 194 nM in test [2] and 379 nM in test [3].

In the case of `C=CC(=O)O[C@@H]1C[C@@H]2C(C)(C)CC[C@@H](O)[C@@]2(C)C(=O)CC[C@@H]2C=C1C(=O)C2=C`, the figures for the half-inhibitory concentration (IC50) in test [1], in test [2] and in test [3] were 166 nM, 382 nM and 1220 nM, respectively.

On to `C=C1C(=O)C2=C[C@H]1CCC(=O)[C@@]1(C)[C@H](C[C@H]2O)C(C)(C)CC[C@H]1OC(C)=O`, for which the IC50 in test [1] amounted to 177 nM; in test [2] it was 228 nM; in test [3] it was 120 nM.

Turning to `C=C1C(=O)C2=C[C@H]1CCC(=O)[C@@]1(C)[C@H](C[C@H]2OC(=O)CCl)C(C)(C)CC[C@H]1OC(C)=O`, the concentration for half-maximal inhibition (IC50) was determined as 1080 nM in test [1], 643 nM in test [2] and 235 nM in test [3].

Consider `C=C1C(=O)C2=C[C@H]1CCC(=O)[C@]1(C)[C@H](O)CCC(C)(C)[C@H]1C[C@H]2OC(=O)CCl`, for which the IC50 in test [1] came out at 551 nM; in test [2], 909 nM; in test [3] it was 1090 nM.

Regarding `C=C1C(=O)O[C@H]2C3=C(CC[C@@H]12)[C@@]1(C)[C@H](CC3=O)C(C)(C)CC[C@H]1OC(C)=O`, the IC50 worked out at 1770 nM in test [1], 842 nM in test [2] and 1240 nM in test [3].

With `C=C1C(=O)C2=C[C@H]1CCC(=O)[C@]1(C)[C@H](O)CCC(C)(C)[C@H]1C[C@H]2OC(=O)CC`, the IC50 in test [1] was determined as 983 nM; in test [2] it was 893 nM; in test [3] it was 999 nM.

As for `C=C1C(=O)C2=C[C@H]1CCC(=O)[C@@]1(C)[C@H](C[C@H]2OCC)C(C)(C)CC[C@H]1OC(C)=O`, the half-maximal inhibitory concentration (IC50) in test [1] came out at 677 nM; in test [2] it was 236 nM; in test [3], 266 nM.

As for `C=C1C(=O)[C@]23O[C@H]2[C@H]1CCC(=O)[C@]1(C)[C@H](O)CCC(C)(C)[C@H]1C[C@H]3O`, the IC50 in test [1] was found to be 473 nM; in test [2], 319 nM; in test [3] it was 1600 nM.

`C=C1C(=O)C2=C[C@H]1CCC(=O)[C@]1(C)[C@H](O)CCC(C)(C)[C@H]1C[C@H]2OC(C)=O`: the results for the IC50 in test [1], in test [2] and in test [3] were 561 nM, 257 nM and 587 nM, respectively.
